How the values were obtained:
[1] = tested on: Internal ribosome entry site (IRES); experiment: Binding affinity to HCV 5'-Alexa488-labeled IRES domain 3 loop RNA at 30 degC after overnight incubation by fluorescence assay; parameters: species or system Hepacivirus hominis
[2] = tested on: Internal ribosome entry site (IRES); experiment: Binding affinity to HCV 5'-Alexa488-labeled IRES domain 3 loop RNA at 36 degC after overnight incubation by fluorescence assay; parameters: species or system Hepacivirus hominis
[3] = tested on: Internal ribosome entry site (IRES); experiment: Binding affinity to HCV 5'-Alexa488-labeled IRES domain 3 loop RNA at 15 degC after overnight incubation by fluorescence assay; parameters: species or system Hepacivirus hominis
[4] = target: Internal ribosome entry site (IRES); experiment: Binding affinity to HCV IRES 5'Alexa488-GCCGAGGAGUGUUGGGUCGCGCAAGGC-3' RNA at 20 degC after overnight incubation by fluorescence assay; parameters: species or system Hepacivirus hominis
[5] = tested on: Internal ribosome entry site (IRES); experiment: Binding affinity to HCV 5'-Alexa488-labeled IRES domain 3 loop RNA at 10 degC after overnight incubation by fluorescence assay; parameters: species or system Hepacivirus hominis
[6] = tested on: Internal ribosome entry site (IRES); experiment: Binding affinity to HCV 5'-Alexa488-labeled IRES domain 3 loop RNA at 20 degC after overnight incubation by fluorescence assay; parameters: species or system Hepacivirus hominis
[7] = tested on: Internal ribosome entry site (IRES); experiment: Binding affinity to HCV 5'-Alexa488-labeled IRES domain 3 loop RNA at 5 degC after overnight incubation by fluorescence assay; parameters: species or system Hepacivirus hominis
[8] = tested on: Internal ribosome entry site (IRES); experiment: Selectivity ratio of Kd for 5'-Alexa488-labeled IRES domain 3 loop RNA in presence of 50-fold excess of tRNA at 20 degC to Kd for HCV 5'-Alexa488-labeled IRES domain 3 loop RNA at 20 degC; conditions: Hepacivirus hominis
[9] = tested on: Internal ribosome entry site (IRES); experiment: Binding affinity to HCV 5'-Alexa488-labeled IRES domain 3 loop RNA assessed as change in entropy after overnight incubation by fluorescence assay; conditions: Hepacivirus hominis
[10] = tested on: Internal ribosome entry site (IRES); experiment: Binding affinity to HCV 5'-Alexa488-labeled IRES domain 3 loop RNA assessed as change in enthalpy after overnight incubation by fluorescence assay; conditions: Hepacivirus hominis
[11] = tested on: Internal ribosome entry site (IRES); experiment: Binding affinity to HCV 5'-Alexa488-labeled IRES domain 3 loop RNA assessed as gibbs free energy change after overnight incubation by fluorescence assay; conditions: Hepacivirus hominis
[12] = target: Internal ribosome entry site (IRES); experiment: Binding affinity to HCV 5'-Alexa488-labeled IRES domain 3 loop RNA at 20 degC after overnight incubation in presence of 50-fold excess of tRNA by fluorescence assay; parameters: species or system Hepacivirus hominis
[13] = tested on: Internal ribosome entry site (IRES); experiment: Potency index, ratio of neomycin Kd to compound Kd for HCV 5'-Alexa488-labeled IRES domain 3 loop RNA at 20 degC; conditions: Hepacivirus hominis
[14] = tested on: Internal ribosome entry site (IRES); experiment: Selectivity ratio of Kd for HCV IRES 5'Alexa488-GCCGAGGAGUGUUGGGUCGCGCAAGGC-3' RNA at 20 degC to Kd for HCV 5'-Alexa488-labeled IRES domain 3 loop RNA at 20 degC; conditions: Hepacivirus hominis

Row | Structure (SMILES) | Kd [1] | Kd [2] | Kd [6] | TdeltaS [9] [kcal/mol] | Kd ([1]; read-out: Kd) [µM] | Kd ([2]; read-out: Kd) [µM] | Kd ([3]; read-out: Kd) [µM] | deltaH [10] [kcal/mol] | deltaG [11] [kcal/mol] | Kd ([5]; read-out: Kd) [µM] | Kd ([6]; read-out: Kd) [µM] | Kd ([7]; read-out: Kd) [µM] | further results
1 | CC(=O)Nc1nccc(-c2cccc(N)c2)n1 |  |  | Not Active |  |  |  |  |  |  |  |  |  | 
2 | CC(=O)Nc1nccc(-c2cccc(NC(=O)c3cccnc3)c2)n1 | Not Active | Not Active |  |  |  |  | 360 |  |  | 290 | 659 | 137 | 
3 | CC(=O)Nc1nccc(-c2cccc(NC(=O)c3nccnc3N)c2)n1 | Not Active | Not Active |  |  |  |  | 158 |  |  | 138 | 232 | 81.5 | 
4 | NCCCC[C@H](N)C(=O)O [LYSINE] |  |  | Not Active |  |  |  |  |  |  |  |  |  | 
5 | CC(=O)Nc1nccc(-c2cccc(NC(=O)[C@@H](N)Cc3c[nH]cn3)c2)n1 |  |  |  | -5.4 | 50.8 | 262 | 15 | -11.6 | -6.19 | 11.8 | 19.7 | 8.6 | 
6 | CC(=O)Nc1nccc(-c2cccc(NC(=O)[C@@H](N)CN)c2)n1 |  |  |  | -2.99 | 18.4 | 30.1 | 7.6 | -9.63 | -6.64 | 6.5 | 10.1 | 5.1 | 
7 | CC(=O)Nc1nccc(-c2cccc(NC(=O)[C@@H](N)CCCCN)c2)n1 |  |  |  | 1.03 | 6.2 | 8.6 | 3.8 | -6.14 | -7.17 | 3.4 | 4.3 | 3.2 | Ratio [13]: 2; Selectivity ratio [8]: 2.4; Selectivity ratio [14]: > 100; Kd [12]: 10.5 µM; Kd ([4]; read-out: Kd): 554 µM
8 | CC(=O)Nc1nccc(-c2cccc(NC(=O)CCCCCNC(=O)[C@@H](N)CN)c2)n1 |  |  |  | -1.74 | 27.7 | 42.6 | 14.2 | -8.08 | -6.33 | 11.6 | 16.8 | 9.4 | 
9 | NCC1O[C@H](O[C@H]2[C@@H](O)[C@H](O[C@H]3[C@H](O)[C@@H](N)C[C@@H](N)[C@@H]3O[C@H]3O[C@H](CN)[C@@H](O)[C@H](O)[C@H]3N)O[C@@H]2CO)[C@H](N)[C@@H](O)[C@@H]1O (stereo partly specified) |  |  |  | -2.8 | 15.6 | 24.1 | 6.5 | -9.51 | -6.72 | 6.1 | 8.5 | 5.7 | 

Continued, in another order:

Row | Kd [1] | Kd [2] | Kd [6] | TdeltaS [9] [kcal/mol] | Kd ([1]; read-out: Kd) [µM] | Kd ([2]; read-out: Kd) [µM] | Kd ([3]; read-out: Kd) [µM] | deltaH [10] [kcal/mol] | deltaG [11] [kcal/mol] | Kd ([5]; read-out: Kd) [µM] | Kd ([6]; read-out: Kd) [µM] | Kd ([7]; read-out: Kd) [µM] | Structure (SMILES) | further results
10 | Not Active | Not Active | Not Active |  |  |  |  |  |  |  |  |  | NCCCCCC(=O)NCC(=O)Nc1nc2ccccc2[nH]1 | Kd [3]: Not Active; Kd ([4]; read-out: Kd): 41.4 µM; Kd [5]: Not Active; Kd [7]: Not Active
11 |  |  |  | 5.88 | 12 | 11.4 | 11.4 | -0.741 | -6.62 | 11.1 | 11.8 | 10.8 | CC(=O)Nc1nccc(-c2cccc(NC(=O)CCCCCN)c2)n1 | Selectivity ratio [8]: 1.4; Kd [12]: 17.1 µM; Kd [4]: Not Active
12 | Not Active | Not Active | Not Active |  |  |  |  |  |  |  |  |  | NCCCC(=O)NCC(=O)Nc1nc2ccccc2[nH]1 | Kd [3]: Not Active; Kd [5]: Not Active; Kd [7]: Not Active
13 |  |  |  | 4.11 | 38.4 | 32.5 | 34.8 | -1.91 | -6.02 | 31.5 | 36.9 | 29.5 | CC(=O)Nc1nccc(-c2cccc(NC(=O)CCCN(C)C)c2)n1 | 
14 | Not Active | Not Active |  |  |  |  | 159 |  |  | 122 | 220 | 102 | CC(=O)Nc1nccc(-c2cccc(NC(=O)CCCN)c2)n1 | 
15 | Not Active | Not Active | Not Active |  |  |  |  |  |  |  |  |  | NCC(=O)NCC(=O)Nc1nc2ccccc2[nH]1 | Kd [3]: Not Active; Kd [5]: Not Active; Kd [7]: Not Active
16 | Not Active | Not Active |  |  |  |  | 438 |  |  | 284 | 863 | 177 | CC(=O)Nc1nccc(-c2cccc(NC(=O)CN)c2)n1 | 

— ChEMBL document CHEMBL4007471, “Assessment of new triplet forming artificial nucleobases as RNA ligands directed towards HCV IRES IIId loop” (Bioorg Med Chem Lett, 2017)
